What all share (assay): radiometric […]-methyl transfer, Lineweaver-Burk
Format in all cases: biochemical
Holding throughout (details): co-substrate S-[14C-methyl]adenosylmethionine; 100 mM Tris-HCl pH 8.0, 1 mM CoCl2, 0.5% Triton X-100; temperature of kinetic assay not stated; read-out: apparent K m

One assay addresses T1, PtrGXM4 (Populus trichocarpa, UniProt W8JN21).
T1 construct: gene GXM4; transmembrane domain removed; E. coli; full-length start MRSKNQS, recombinant start SPRPNSS, C-terminus SGKPFCP (translated from primers)
T1 sequence (W8JN21 34-301): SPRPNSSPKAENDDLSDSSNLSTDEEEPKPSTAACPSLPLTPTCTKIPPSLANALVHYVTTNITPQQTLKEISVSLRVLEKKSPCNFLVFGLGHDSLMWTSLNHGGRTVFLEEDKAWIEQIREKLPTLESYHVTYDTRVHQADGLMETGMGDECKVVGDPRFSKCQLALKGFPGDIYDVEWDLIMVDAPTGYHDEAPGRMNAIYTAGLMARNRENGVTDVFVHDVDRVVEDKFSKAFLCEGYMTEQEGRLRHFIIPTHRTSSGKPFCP

For the next assay, the target named is T2, PtrGXM3 (Populus trichocarpa, UniProt A9PC88).
T2 construct: gene GXM3; transmembrane domain removed; E. coli; full-length start MRPNKNQ, recombinant start SSPRSNP, C-terminus SGRPFCP (translated from primers)
T2 sequence (A9PC88 34-304): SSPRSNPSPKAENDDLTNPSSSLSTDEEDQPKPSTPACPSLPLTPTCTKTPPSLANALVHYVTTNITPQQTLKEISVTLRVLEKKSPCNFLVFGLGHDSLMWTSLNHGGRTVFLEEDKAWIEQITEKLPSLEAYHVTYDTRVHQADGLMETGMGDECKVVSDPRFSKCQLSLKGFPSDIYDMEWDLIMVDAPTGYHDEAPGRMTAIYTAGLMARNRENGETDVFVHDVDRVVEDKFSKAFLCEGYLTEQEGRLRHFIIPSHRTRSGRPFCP

The target in the next assay is T3, PtrGXM1 (Populus trichocarpa, UniProt W8JDL1).
T3 construct: gene GXM1; transmembrane domain removed; E. coli; full-length start MRPKGQ, recombinant start PSSQESP, C-terminus DRPFCPE (translated from primers)
T3 sequence (W8JDL1 33-288): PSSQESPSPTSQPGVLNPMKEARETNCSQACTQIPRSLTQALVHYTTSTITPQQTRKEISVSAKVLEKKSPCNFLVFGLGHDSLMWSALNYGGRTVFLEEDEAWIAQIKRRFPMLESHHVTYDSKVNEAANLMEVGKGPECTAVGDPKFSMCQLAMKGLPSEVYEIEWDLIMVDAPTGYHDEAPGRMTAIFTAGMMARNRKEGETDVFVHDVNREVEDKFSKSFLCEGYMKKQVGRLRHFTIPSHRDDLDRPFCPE

The next assay has as its target T4, PtrGXM2 (Populus trichocarpa, UniProt W8JCL4).
T4 construct: gene GXM2; transmembrane domain removed; E. coli; full-length start MRPKSQQ, recombinant start SSSQESS, C-terminus DRPFCPE (translated from primers)
T4 sequence (W8JCL4 33-288): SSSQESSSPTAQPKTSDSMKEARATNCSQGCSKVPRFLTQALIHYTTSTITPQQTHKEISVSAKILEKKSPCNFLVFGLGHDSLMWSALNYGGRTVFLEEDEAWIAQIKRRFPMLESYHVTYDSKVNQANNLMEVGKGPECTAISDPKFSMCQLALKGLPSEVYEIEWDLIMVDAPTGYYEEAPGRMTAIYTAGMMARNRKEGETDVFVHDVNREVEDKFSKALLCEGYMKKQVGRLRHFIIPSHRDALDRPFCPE

As to GlcA-substituted Xyl4, the Km turned out to be 290 µM on PtrGXM4, 300 µM on PtrGXM3, 3250 µM at PtrGXM1 and 3980 µM on PtrGXM2.

The values are drawn from paper PMC3921138, “Identification and Biochemical Characterization of Four Wood-Associated Glucuronoxylan Methyltransferases in Populus” (PLoS ONE, 2014).
